Legend:
[1] = test system: neuropathic pain induced by spinal nerve ligation (SNL) injury; test: SNL model or Chung model for peripheral neuropathic pain, mechanical allodynia (von Frey); type: in vivo, rat; details: for reversal of neuropathic pain induced by spinal nerve ligation: 10 mg/kg oral gavage for 5 days, rat; for 50% paw withdrawal threshold: cut-off 60 g
Protocol: SNL model or Chung model as in vivo model for peripheral neuropathic pain
Surgery was performed according to the method of Chung et al., 2004 (see List of References). In brief, animals are anesthetized and the hair on their backs is trimmed. Under sterile conditions, a longitudinal incision is made at the lower lumbar and sacral levels, exposing the paraspinal muscles on the left. Connective tissues and muscles are removed by a small scraper, after which bony structures become visible. The L6 vertebra left transverse process of animal was first removed to expose the L4 and L5 spinal nerves. The L5 spinal nerve was then carefully isolated and tightly ligated with 6-0 silk thread. Surgery was always performed on the left leg (Ipsilateral paw), the right leg (contralateral paw) remained intact and served as a control. On completion of the operation, hemostasis is confirmed and the muscles are sutured in layers using silk thread and the skin is closed with metal clips, anesthesia is then discontinued. Axonal degeneration occurs, with all types of axons being approximately equally affected. Pronounced mechanical allodynia follows, accompanied by spontaneous pain behaviors, which lasts for several weeks without recovery. Mechanical allodynia is typically assessed beginning 1-2 weeks post-surgery.
(§1) Mechanical allodynia thresholds were determined according to the methods described by Chaplan and colleagues (Chaplan et al., 1994). At the designated post-operative time points the injured rats were placed in an elevated clear-plastic, wire mesh-bottomed cage. After a 10- to 15-min acclimation period, eight von Frey filaments (Stoelting, Wood Dale, Ill.) with bending forces ranging from 2 to 60 g were used to determine the 50% mechanical threshold for paw withdrawal using the up-and-down method.
After spinal nerve ligation (SNL) injury, individual rats were randomly assigned into a treatment group. The following groups were used:
Group 2: SNL+ Example 1 (10 mg/kg) in vehicle by oral gavage for 5 days from DPO7 (pre-treat) till DPO12.
Group 3: SNL+ Example 2 (10 mg/kg) in vehicle by oral gavage for 5 days from DPO7 (pre-treat) till DPO12.
Group 2: SNL+ Example 3 (10 mg/kg) in vehicle by oral gavage for 5 days from DPO14 till DPO19.
Group 3: SNL+ Example 4 (10 mg/kg) in vehicle by oral gavage for 5 days from DPO14 till DPO19.
Group 4: SNL+ Example 6 (10 mg/kg) in vehicle by oral gavage for 5 days from DPO14 till DPO19.

[2] = biological target: GABA gated Cl-channel (GABA.A receptor complex); test: GABAA receptor binding assay ([35S]TBPS radioligand); details: 3 nM [35S]TBPS, rat cerebral cortex membrane homogenates, 120 min at 22° C.
Protocol: GABAA Receptor Binding Assay:
The affinity of the test compounds for the GABA gated Cl-channel (GABA.A receptor complex) in the rat cerebral cortex was determined in a radioligand binding assay (Lewin et al,. 1989). Membrane homogenates of cerebral cortex are incubated for 120 min at 22° C. with 3 nM [35S]TBPS (-t-butylbicyclophosphoorothionate) in the presence and absence of the test compound.
Following incubation, the samples are filtered rapidly under vacuum through glass fiber filters and rinsed several times with ice-cold buffer using a 96-sample cell harvester. The filters are dried then counted for radioactivity in a scintilliation counter using a scintillation cocktail (Microscint 0, Packard). Each compound was tested at several concentrations to calculate the IC50 values of the affinity to the GABA.A receptor complex in cerebral cortex of rats.

human GABAA α2β3γ2 = human GABAA α2β3γ2 (Homo sapiens (Human), UniProt P18507+P28472+P47869); test: Patch clamp electrophysiology, positive modulation, HEK293 cells expressing GABAA α2β3γ2; type: cell-based; details: GABA EC20 current = 100%
Sequence of human GABAA α2β3γ2 (P47869 29-451): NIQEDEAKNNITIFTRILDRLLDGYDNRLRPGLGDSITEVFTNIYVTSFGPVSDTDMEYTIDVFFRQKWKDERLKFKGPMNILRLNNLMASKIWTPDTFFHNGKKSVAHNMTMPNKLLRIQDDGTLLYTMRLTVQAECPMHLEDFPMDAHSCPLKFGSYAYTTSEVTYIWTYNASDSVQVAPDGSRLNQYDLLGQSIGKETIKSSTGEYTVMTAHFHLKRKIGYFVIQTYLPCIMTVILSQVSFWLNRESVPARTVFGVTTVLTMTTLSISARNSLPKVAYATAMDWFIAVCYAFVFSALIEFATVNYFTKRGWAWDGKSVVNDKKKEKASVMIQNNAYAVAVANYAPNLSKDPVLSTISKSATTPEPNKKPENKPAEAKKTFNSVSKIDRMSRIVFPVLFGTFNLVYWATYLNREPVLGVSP
Sequence of human GABAA α2β3γ2 (P28472 26-473): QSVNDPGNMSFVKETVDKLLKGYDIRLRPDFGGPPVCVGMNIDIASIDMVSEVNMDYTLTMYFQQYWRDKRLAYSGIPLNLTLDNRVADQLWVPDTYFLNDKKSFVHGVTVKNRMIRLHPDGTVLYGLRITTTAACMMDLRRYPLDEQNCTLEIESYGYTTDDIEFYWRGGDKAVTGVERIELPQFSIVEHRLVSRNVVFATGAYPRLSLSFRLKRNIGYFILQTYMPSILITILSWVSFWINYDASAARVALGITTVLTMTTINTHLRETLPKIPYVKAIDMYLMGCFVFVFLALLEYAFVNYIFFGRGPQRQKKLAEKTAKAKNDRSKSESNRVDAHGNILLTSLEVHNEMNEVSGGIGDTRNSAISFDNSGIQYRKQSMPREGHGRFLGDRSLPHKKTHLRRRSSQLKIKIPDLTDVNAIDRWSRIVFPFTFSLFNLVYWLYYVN
Sequence of human GABAA α2β3γ2 (P18507 40-475): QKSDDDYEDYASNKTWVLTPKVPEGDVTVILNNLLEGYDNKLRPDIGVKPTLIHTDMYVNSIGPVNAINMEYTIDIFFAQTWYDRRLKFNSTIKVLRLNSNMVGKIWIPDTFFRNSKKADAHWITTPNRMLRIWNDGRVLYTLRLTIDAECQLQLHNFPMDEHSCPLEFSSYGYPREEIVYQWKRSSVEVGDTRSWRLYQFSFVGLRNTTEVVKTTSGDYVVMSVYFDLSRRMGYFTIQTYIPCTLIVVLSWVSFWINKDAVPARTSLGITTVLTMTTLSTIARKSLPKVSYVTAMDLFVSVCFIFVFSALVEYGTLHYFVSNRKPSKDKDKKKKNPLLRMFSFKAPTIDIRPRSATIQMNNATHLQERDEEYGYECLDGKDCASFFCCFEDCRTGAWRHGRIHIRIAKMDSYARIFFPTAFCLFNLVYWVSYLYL
Source text: (§2) Electrophysiological assays on different subunit combinations of the human GABAA receptor complex.
(§3) The functional positive modulation activity of the test compounds were investigated by using patch clamp techniques on HEK293 cells stably expressing different subunit combinations of the human GABAA receptor complex. In brief, the peak inward currents in response to the GABA (natural ligand of the GABAA receptors) additions in the presence of increasing concentrations of test compound were measured. To calculate the positive modulation activity the mean effect of GABA (EC20 concentration) was set to 100%.
(§4) A value of 100 percent equates to the compound having an effect equivalent to the addition of the EC20 concentration of GABA.

human GABAA α1β3γ2 = human GABAA α1β3γ2 (Homo sapiens (Human), UniProt P14867+P18507+P28472); test: Patch clamp electrophysiology, positive modulation, HEK293 cells expressing GABAA α1β3γ2; type: cell-based; details: GABA EC20 current = 100%
Sequence of human GABAA α1β3γ2 (P14867 28-456): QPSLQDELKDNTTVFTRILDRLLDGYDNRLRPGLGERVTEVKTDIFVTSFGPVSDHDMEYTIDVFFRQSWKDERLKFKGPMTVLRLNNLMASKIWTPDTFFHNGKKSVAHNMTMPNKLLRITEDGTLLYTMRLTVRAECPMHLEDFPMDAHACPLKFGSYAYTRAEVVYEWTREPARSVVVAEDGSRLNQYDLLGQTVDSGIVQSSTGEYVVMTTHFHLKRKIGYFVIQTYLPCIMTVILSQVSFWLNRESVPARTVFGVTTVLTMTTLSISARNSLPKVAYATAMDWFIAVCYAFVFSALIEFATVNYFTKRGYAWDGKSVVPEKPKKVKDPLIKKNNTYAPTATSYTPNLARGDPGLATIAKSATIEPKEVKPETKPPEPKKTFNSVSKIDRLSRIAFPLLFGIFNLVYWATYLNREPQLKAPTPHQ
Sequence of human GABAA α1β3γ2 (P28472 26-473): as the sequence (P28472 26-473) above
Sequence of human GABAA α1β3γ2 (P18507 40-475): as the sequence (P18507 40-475) above
Source text: as §2, §3, §4

[3] = test system: acute pain induced by capsaicin injection in the hindpaw; test: Capsaicin induced pain model for acute pain, mechanical allodynia (von Frey); type: in vivo, rat; details: for reversal of acute pain induced by capsaicin injection: 1 or 10 mg/kg oral gavage, rat hindpaw
Protocol: as §1
Capsaicin induced pain as in vivo model for acute pain
Rats were gently restrained and capsaicin (10 μg in 10 μI of 10% Tween80) in saline was injected into the plantar surface of the hindpaw using a 0.3 ml insulin syringe with a 29-gauge needle (Terumo Europe, Belgium).
After injection of Capsaicin, individual rats were randomly assigned into a treatment group. The following groups were used:
Group 2: Capsaicin injection+ Example 1 (1 mg/kg) in vehicle by oral gavage about 40 minutes after injection.
Group 3: Capsaicin injection+ Example 3 (1 mg/kg) in vehicle by oral gavage about 40 minutes after injection.
Group 2: Capsaicin injection+ Example 2 (10 mg/kg) in vehicle by oral gavage about 40 minutes after injection.
Group 3: Capsaicin injection+ Example 6 (10 mg/kg) in vehicle by oral gavage about 40 minutes after injection.

human GABAA α3β3γ2 = human GABAA α3β3γ2 (Homo sapiens (Human), UniProt P18507+P28472+P34903); test: Patch clamp electrophysiology, positive modulation, HEK293 cells expressing GABAA α3β3γ2; type: cell-based; details: GABA EC20 current = 100%
Sequence of human GABAA α3β3γ2 (P34903 29-492): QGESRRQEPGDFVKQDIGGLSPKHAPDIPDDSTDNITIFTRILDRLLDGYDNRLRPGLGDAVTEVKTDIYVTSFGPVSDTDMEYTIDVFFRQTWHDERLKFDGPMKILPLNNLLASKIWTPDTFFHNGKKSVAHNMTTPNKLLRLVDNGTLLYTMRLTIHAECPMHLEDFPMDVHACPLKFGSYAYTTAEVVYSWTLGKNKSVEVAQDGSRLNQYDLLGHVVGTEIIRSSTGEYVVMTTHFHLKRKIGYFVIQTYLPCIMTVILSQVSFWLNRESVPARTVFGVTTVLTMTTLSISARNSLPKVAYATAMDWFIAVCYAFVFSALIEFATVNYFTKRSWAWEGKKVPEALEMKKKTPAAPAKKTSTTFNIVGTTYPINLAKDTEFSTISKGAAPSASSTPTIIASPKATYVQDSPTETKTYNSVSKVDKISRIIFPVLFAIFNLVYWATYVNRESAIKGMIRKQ
Sequence of human GABAA α3β3γ2 (P28472 26-473): as the sequence (P28472 26-473) above
Sequence of human GABAA α3β3γ2 (P18507 40-475): as the sequence (P18507 40-475) above
Source text: as §2, §3, §4

[4] = Experiment 1, 10 mg/kg oral gavage 5 days DPO7-DPO12, at DPO35 (end of experiment)
[5] = Experiment 1, 1 mg/kg oral gavage about 40 minutes after capsaicin, 150 minutes after capsaicin injection
[6] = Experiment 1, 1 mg/kg oral gavage about 40 minutes after capsaicin, 210 minutes after capsaicin injection
[7] = Experiment 2, 10 mg/kg oral gavage about 40 minutes after capsaicin, 150 minutes after capsaicin injection
[8] = Experiment 2, 10 mg/kg oral gavage about 40 minutes after capsaicin, 210 minutes after capsaicin injection
[9] = Experiment 2, 10 mg/kg oral gavage 5 days DPO14-DPO19, after DPO21 till end of experiment at DPO35
[10] = Experiment 2, 10 mg/kg oral gavage 5 days DPO14-DPO19, at DPO21

| Structure (SMILES) | IC50 [2] | reversal of neuropathic pain induced by spinal nerve ligation [1] | GABAA α2β3γ2 normalized percent current (human GABAA α2β3γ2; 10 μM test compound) | GABAA α1β3γ2 normalized percent current (human GABAA α1β3γ2; 10 μM test compound) | reversal of acute pain induced by capsaicin injection [3] | GABAA α3β3γ2 normalized percent current (human GABAA α3β3γ2; 10 μM test compound) | 50% paw withdrawal threshold [1, 10] | also measured |
| --- | --- | --- | --- | --- | --- | --- | --- | --- |
| Cc1cc(NC(=S)C(C#N)=C(O)C2CC2)ccc1C(F)(F)F [Example 1, 2-Cyano-3-cyclopropyl-3-hydroxy-N-(3-methyl-4-trifluormethyl-phenyl)-thioacrylamide] | 5.3 µM | can reverse neuropathic pain | 614% | 792% | can reverse acute pain | 697% | – | 50% paw withdrawal threshold [1, 4]: 30 g; 50% paw withdrawal threshold [3, 5]: 30 g; 50% paw withdrawal threshold [3, 6]: ~50 g |
| Cc1cc(NC(=S)C(C#N)=C(O)C2CC2)ccc1[N+](=O)[O-] [Example 3, 2-Cyano-3-cyclopropyl-3-hydroxy-N-(3-methyl-4-nitro-phenyl)-thioacrylamide] | 6 µM | can reverse neuropathic pain | – | – | can reverse acute pain | – | about 35 g | 50% paw withdrawal threshold [1, 9]: 23 to 25 g; GABAA α2β3γ2 normalized percent current (human GABAA α2β3γ2; 50 μM test compound): 380%; GABAA α1β3γ2 normalized percent current (human GABAA α1β3γ2; 50 μM test compound): 424%; 50% paw withdrawal threshold [3, 5]: 40 g; 50% paw withdrawal threshold [3, 6]: ~50 g; GABAA α3β3γ2 normalized percent current (human GABAA α3β3γ2; 50 μM test compound): 469% |
| N#CC(C(=S)Nc1ccc([N+](=O)[O-])cc1)=C(O)C1CC1 [Example 4, 2-Cyano-3-cyclopropyl-3-hydroxy-N-(4-nitro-phenyl)-thioacrylamide] | 8.7 µM | can reverse neuropathic pain | – | – | – | – | ~50 g | 50% paw withdrawal threshold [1, 9]: 30 g |
| N#CC(C(=S)Nc1ccc(SC(F)(F)F)cc1)=C(O)C1CC1 [Example 5, 2-Cyano-3-cyclopropyl-3-hydroxy-N-(4-trifluoromethylsulfanyl-phenyl)-thioacrylamide] | 7.7 µM | – | 453% | 707% | – | 315% | – | – |

The remaining molecules from weak to strong by IC50 [2], led by results:

| IC50 [2] | Structure (SMILES) | reversal of neuropathic pain induced by spinal nerve ligation [1] | GABAA α2β3γ2 normalized percent current (human GABAA α2β3γ2; 10 μM test compound) | GABAA α1β3γ2 normalized percent current (human GABAA α1β3γ2; 10 μM test compound) | reversal of acute pain induced by capsaicin injection [3] | GABAA α3β3γ2 normalized percent current (human GABAA α3β3γ2; 10 μM test compound) | 50% paw withdrawal threshold [1, 10] | also measured |
| --- | --- | --- | --- | --- | --- | --- | --- | --- |
| 10.3 µM | N#CC(C(=S)Nc1ccc([S+]([O-])C(F)(F)F)cc1)=C(O)C1CC1 (stereo not shown) [Example 8, 2-Cyano-3-cyclopropyl-3-hydroxy-N-(4-trifluoromethanesulfinyl-phenyl)-thioacrylamide] | – | – | – | – | – | – | – |
| 9.6 µM | N#CC(C(=S)Nc1ccc(C#N)cc1)=C(O)C1CC1 [Example 7, 2-Cyano-N-(4-cyano-phenyl)-3-cyclopropyl-3-hydroxy-thioacrylamide] | – | – | – | – | – | – | – |
| 8.3 µM | Cc1cc(NC(=S)C(C#N)=C(O)C2CC2)ccc1F [Example 2, 2-Cyano-3-cyclopropyl-N-(4-fluoro-3-methyl-phenyl)-3-hydroxy-thioacrylamide] | can reverse neuropathic pain | – | – | can reverse acute pain | – | – | 50% paw withdrawal threshold ([1]; Experiment 1, 10 mg/kg oral gavage 5 days DPO7-DPO12, at DPO21): 40 g; 50% paw withdrawal threshold [1, 4]: 40 g; GABAA α2β3γ2 normalized percent current (human GABAA α2β3γ2; 50 μM test compound): 470%; GABAA α1β3γ2 normalized percent current (human GABAA α1β3γ2; 50 μM test compound): 734%; 50% paw withdrawal threshold [3, 7]: ~40 g; 50% paw withdrawal threshold [3, 8]: ~33 g; GABAA α3β3γ2 normalized percent current (human GABAA α3β3γ2; 50 μM test compound): 835% |
| 7.9 µM | Cc1cc(NC(=S)C(C#N)=C(O)C2CC2)ccc1C#N [Example 6, 2-Cyano-N-(4-cyano-3-methyl-phenyl)-3-cyclopropyl-3-hydroxy-thioacrylamide] | can reverse neuropathic pain | 286% | 338% | can reverse acute pain | 357% | ~40 g | 50% paw withdrawal threshold [3, 7]: 35 g; 50% paw withdrawal threshold [3, 8]: 25 g |
| 5 µM | N#CC(C(=S)Nc1ccc(S(=O)(=O)C(F)(F)F)cc1)=C(O)C1CC1 [Example 9, 2-Cyano-3-cycopropyl-3-hydroxy-N-(4-trifluoromethanesulfonyl-phenyl)-thioacrylamide] | – | 259% | 286% | – | 328% | – | – |

From patent US10472324B2, “2-cyano-3-cyclopropyl-3-hydroxy-N-aryl-thioacrylamide derivatives” (Algiax Pharmaceuticals GmbH, priority 2014, dated 2019)
